Patent EP2128158A1, “Heterocyclic cyclopropyl-substituted FXR binding compounds” (Phenex Pharmaceuticals AG, priority 2008, dated 2009)
Like-named read-outs stand apart in the source and are kept apart here.

Legend:
[1] = target: T1, FXR ligand binding domain (Homo sapiens, UniProt Q96RI1); assay: Mammalian one hybrid (M1H) assay, Gal4 promoter driven transactivation in HEK293 cells; assay type: cell-based; details: Gal4-FXR LBD, 16 hours incubation, dual luciferase, read-out: M1H assay EC50 (±sd)
T1 construct: expressed in transfected cells; host or cells: HEK293 (DSMZ), transient transfection, vector pCMV-BD
T1 sequence (Q96RI1 187-472 isoform Q96RI1-2): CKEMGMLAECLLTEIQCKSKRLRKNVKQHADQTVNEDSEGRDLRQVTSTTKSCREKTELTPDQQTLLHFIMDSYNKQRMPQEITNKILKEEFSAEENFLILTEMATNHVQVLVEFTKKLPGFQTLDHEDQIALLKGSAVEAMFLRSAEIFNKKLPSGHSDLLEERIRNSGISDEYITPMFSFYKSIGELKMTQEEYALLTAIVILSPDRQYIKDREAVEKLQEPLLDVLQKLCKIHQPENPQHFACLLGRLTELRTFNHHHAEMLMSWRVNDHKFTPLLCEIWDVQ
Experimental: Determination of a ligand mediated Gal4 promoter driven transactivation to quantify ligand binding mediated activation of FXR was performed as follows: The cDNA part encoding the FXR ligand binding domain was cloned into vector pCMV-BD (Stratagene) as a fusion to the yeast GAL4 DNA binding domain under the control of the CMV promoter. The amino acid boundaries of the ligand binding domain were amino acids 187-472 of Database entry NM_005123 (RefSeq). The plasmid pFR-Luc (Stratagene) was used as the reporter plasmid, containing a synthetic promoter with five tandem repeats of the yeast GAL4 binding sites, driving the expression of the Photinus pyralis (American firefly) luciferase gene as the reporter gene. In order to improve experimental accuracy the plasmid pRL-CMV (Promega) was cotransfected. pRL-CMV contains the constitutive CMV promoter, controlling the expression of the Renilla reniformis luciferase. All Gal4 reporter gene assays were done in HEK293 cells (obtained from DSMZ, Braunschweig, Germany) grown in MEM with L-Glutamine and Earle's BSS supplemented with 10% fetal bovine serum, 0.1 mM nonessential amino acids, 1mM sodium pyruvate, and 100units Penicilin/[…] per ml at 37°C in 5% CO2. Medium and supplements were obtained from Invitrogen. For the assay, 5x10^5 cells were plated per well in 96well plates in 100µl per well MEM without Phenol Red and L-Glutamine and with Earle's BSS supplemented with 10% charcoal/dextran treated FBS (HyClone, South Logan, Utah), 0.1 mM nonessential amino acids, 2 mM glutamine, 1 mM sodium pyruvate, and 100 units Penicilin/[…] per ml, incubated at 37 °C in 5% CO2. The following day the cells were >90% confluence. Medium was removed and cells were transiently transfected using 20µl per well of a OptiMEM - polyethylene-imine-based transfection-reagent (OptiMEM, Invitrogen; Polyethyleneimine, Aldrich Cat No. 40,827-7) including the three plasmids described above. MEM with the same composition as used for plating cells was added 2-4 hours after addition of transfection mixture. Then compound stocks, prediluted in MEM were added (final vehicle concentration not exceeding 0.1 %). Cells were incubated for additional 16 hours before firefly and renilla luciferase activities were measured sequentially in the same cell extract using a Dual-Light-Luciferase-Assay system (Dyer et al., Anal Biochem 2000, (282), 158-161). All experiments were done in triplicates.

[2] = target: T2, human FXR alpha ligand binding domain (Homo sapiens, UniProt Q96RI1); assay: FRET activity assay (ligand mediated FXR-LBD / SRC-1 cofactor peptide interaction, LANCE); assay type: biochemical
T2 construct: made in house; host or cells: E. coli BL21(DE3), vector pDEST15
T2 sequence (Q96RI1 187-472 isoform Q96RI1-2): T1 sequence (Q96RI1 187-472 isoform Q96RI1-2)
Experimental: Determination of a ligand mediated cofactor peptide interaction to quantify ligand binding to the nuclear receptor FXR was performed as follows: Preparation of human FXR alpha ligand binding domain: The human FXRalpha LBD was expressed in E. coli strain BL21(DE3) as an N-terminally GST tagged fusion protein. The DNA encoding the FXR ligand binding domain was cloned into vector pDEST15 (Invitrogen). Expression was under control of an IPTG inducible T7 promoter. The amino acid boundaries of the ligand binding domain were amino acids 187-472 of Database entry NM_005123 (RefSeq). Expression and purification of the FXR-LBD:
An overnight preculture of a transformed E.coli strain was diluted 1:20 in LB-Ampicillin medium and grown at 30°C to an optical density of OD600=0.4-0.6. Gene expression was then induced by addition of 0.5 mM IPTG. Cells were incubated an additional 6h at 30°C, 180 rpm. Cells were collected by centrifugation (7000 x g, 7 min, room temperature). Per liter of original cell culture, cells were resuspended in 10 ml lysis buffer (50 mM Glucose, 50 mM Tris pH 7.9, 1 mM EDTA and 4 mg/ml lysozyme) and left on ice for 30 min. Cells were then subjected to sonication and cell debris removed via centrifugation (22000 x g, 30 min, 4°C). Per 10 ml of supernatant 0.5 ml prewashed Glutathione 4B sepharose slurry (Qiagen) was added and the suspension kept slowly rotating for 1 h at 4°C. Glutathione 4B sepharose beads were pelleted by centrifugation (2000 g, 15 sec, 4°C) and washed twice in wash buffer (25 mM Tris, 50mM KCl, 4 mM MgCl2 and 1M NaCl). The pellet was resuspended in 3 ml elution buffer per liter of original culture (elution buffer: 20 mM Tris, 60 mM KCI, 5 mM MgCl2 and 80 mM glutathione added immediately prior to use as powder). The suspension was left rotating for 15 min at 4°C, the beads pelleted and eluted again with half the volume of elution buffer than the first time. The eluates were pooled and dialysed overnight in 20 mM Hepes buffer (pH 7.5) containing 60 mM KCI, 5 mM MgCl2 as well as 1 mM dithiothreitol and 10% (v/v) glycerol. The protein was analysed by SDS-Page.
The method measures the ability of putative ligands to modulate the interaction between the purified bacterial expressed FXR ligand binding domain (LBD) and a synthetic biotinylated peptide based on residues 676-700 of SRC-1 (LCD2, 676-700). The sequence of the peptide used was B-[…]-COOH where the N-terminus was biotinylated (B). The ligand binding domain (LBD) of FXR was expressed as fusion protein with GST in BL-21 cells using the vector pDEST15. Cells were lysed by sonication, and the fusion proteins purified over glutathione sepharose (Pharmacia) according to the manufacturers instructions. […] For ease of handling and reduction of background from compound fluorescence LANCE technology makes use of generic fluorophore labels and time resolved detection Assays were done in a final volume of 2 5µl in a 384 well plate, in a Tris-based buffer (20 mM Tris-HCl pH 7,5; 60 mM KCI, 5 mM MgCl2; 35 ng/µl BSA), containing 20-60 ng/well recombinantly expressed FXR-LBD fused to GST, 200-600 nM N-terminally biotinylated peptide, representing SRC1 aminoacids 676-700, 200 ng/well Streptavidin-xIAPC conjugate(Prozyme) and 6-10 ng/well Eu W1024 - antiGST (Perkin Elmer). […] The LANCE signal was detected by a Perkin Elmer VICTOR2VTM Multilabel Counter The results were visualized by plotting the ratio between the emitted light at 665 nm and 615 nm. […]

full length human FXR = target: T3, full length human FXR (Homo sapiens, UniProt Q96RI1); assay: Direct reporter (DR) gene assay in stably transfected HEK293 cells (D2IV3), luciferase; assay type: cell-based
T3 construct: The full length human FXR (NM_005123) was cloned into pTRexDest30; expressed in transfected cells
T3 sequence (Q96RI1 1-472 isoform Q96RI1-2): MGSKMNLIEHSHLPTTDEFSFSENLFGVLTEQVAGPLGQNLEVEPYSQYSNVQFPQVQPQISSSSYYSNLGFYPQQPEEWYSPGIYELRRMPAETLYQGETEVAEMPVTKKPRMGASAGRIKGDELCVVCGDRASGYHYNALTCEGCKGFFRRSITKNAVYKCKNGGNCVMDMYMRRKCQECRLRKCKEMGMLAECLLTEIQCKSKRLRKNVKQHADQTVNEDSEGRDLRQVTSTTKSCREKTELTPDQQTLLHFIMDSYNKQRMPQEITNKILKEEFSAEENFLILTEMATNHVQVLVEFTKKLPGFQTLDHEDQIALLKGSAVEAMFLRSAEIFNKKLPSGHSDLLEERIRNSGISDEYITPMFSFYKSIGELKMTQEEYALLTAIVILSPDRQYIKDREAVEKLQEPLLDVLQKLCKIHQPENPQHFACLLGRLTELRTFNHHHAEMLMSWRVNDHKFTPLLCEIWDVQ
From the text: In the direct reporter gene assay, HEK293 cells, obtained from DSMZ (German Collection of Microorganisms and Cell Cultures, Braunschweig, Germany) were stably transfected with pTRexDest30 (Invitrogen) derivative pTRexDest30-hFXR and pGL2promoter (Promega) derivative pGL2promoter-2xIBABP-RE. The full length human FXR (NM_005123) was cloned into pTRexDest30 according to the manufacturer protocol for the Gateway system (Invitrogen). The FXR response elements cccaGGGTGAaTAACCTcggggctctgtccctccaatcccaGGGTGAaTAACCTcggg were derived from the human IBABP-P promoter (Grober et al. 1999, JBC, 174, pp.29749-29754) and cloned into pGL2promoter. […] For the direct reporter gene assays, D2IV3 cells were grown in MEM with L-Glutamine and Earle's BSS supplemented with 10% fetal bovine serum, 0.1mM nonessential amino acids, 1mM sodium pyruvate, and 100units Penicilin/[…] per ml at 37°C in 5% CO2. Medium and supplements were obtained from Invitrogen. For the assay, 5x10^5 cells were plated per well in 96well plates in 100µl per well minimum essential medium (same composition as above) incubated at 37°C in 5% CO2. The following day the cells were >90% confluence. Compounds were prediluted in MEM and added at different concentrations to the cells with the final DMSO vehicle concentration not exceeding 0.1%. Cells were incubated for additional 16 hours before firefly luciferase activity was measured. All experiments were done in triplicates.

[3] = GST-tagged FXR-LBD, biotinylated SRC-1 peptide 676-700; read-out: FRET assay EC50 (±sd)
[4] = 16 hours incubation, firefly luciferase, read-out: DR assay EC50 (±sd)

| Structure (SMILES) | EC50 [1] | EC50 [2, 3] | EC50 (full length human FXR; [4]) | EC50 ([2]; read-out: FRET assay EC50 (±sd); GST-tagged FXR-LBD, biotinylated SRC-1 peptide 676-700) | EC50 (full length human FXR; read-out: DR assay EC50 (±sd), 16 hours incubation, firefly luciferase) |
| --- | --- | --- | --- | --- | --- |
| CC(C)c1onc(-c2c(Cl)cccc2Cl)c1COc1ccc(N(C)Cc2ccc(C(=O)O)cc2)c(C(F)(F)F)n1 [Compound B, 4-(((6-((3-(2,6-Dichlorophenyl)-5-isopropylisoxazol-4-yl)methoxy)-2-(trifluoromethyl)pyridin-3-yl)(methyl)amino)methyl)benzoic acid, reference compound] | 95 nM | 17 nM | 13 nM | – | – |
| CN(Cc1ccc(C(=O)O)cc1)c1ccc(OCc2c(-c3c(Cl)cccc3Cl)noc2C2CC2)nc1C(F)(F)F [Example 1, 4-{[(6-((5-Cyclopropyl-3-(2,6-dichlorophenyl)isoxazol-4-yl)methoxy)-2-(trifluoromethyl)pyridin-3-yl)(methyl)amino]methyl}benzoic acid] | 56 nM | – | – | 8.4 nM | 6.4 nM |

The next lines start with results.

| EC50 [1] | EC50 [2, 3] | EC50 (full length human FXR; [4]) | Structure (SMILES) | EC50 ([2]; read-out: FRET assay EC50 (±sd); GST-tagged FXR-LBD, biotinylated SRC-1 peptide 676-700) | EC50 (full length human FXR; read-out: DR assay EC50 (±sd), 16 hours incubation, firefly luciferase) |
| --- | --- | --- | --- | --- | --- |
| 55 nM | 11.5 nM | 6 nM | Cc1cc(CN(C)c2ccc(OCc3c(-c4c(Cl)cccc4Cl)noc3C3CC3)nc2C(F)(F)F)cc(C)c1C(=O)O [Example 3, 4-{[(6-((5-Cyclopropyl-3-(2,6-dichlorophenyl)isoxazol-4-yl)methoxy)-2-(trifluoromethyl)pyridin-3-yl)(methyl)amino]methyl}-2,6-dimethylbenzoic acid] | – | – |
| 186 nM | 11 nM | 5.7 nM | CC(C)c1onc(-c2c(Cl)cccc2Cl)c1COc1ccc(N(C)Cc2cccc(C(=O)O)c2)c(C(F)(F)F)n1 [Compound C, 3-(((6-((3-(2,6-Dichlorophenyl)-5-isopropylisoxazol-4-yl)methoxy)-2-(trifluoromethyl)pyridin-3-yl)(methyl)amino)methyl)benzoic acid, reference compound] | – | – |
| 40 nM | 7.7 nM | 6 nM | Cc1cc(CN(C)c2ccc(OCc3c(-c4c(Cl)cccc4Cl)noc3C3CC3)nc2C(F)(F)F)ccc1C(=O)O [Example 2, 4-{[(6-((5-Cyclopropyl-3-(2,6-dichlorophenyl)isoxazol-4-yl)methoxy)-2-(trifluoromethyl)pyridin-3-yl)(methyl)amino]methyl}-2-methylbenzoic acid] | – | – |
